The numbers were not newly measured in patent publication US20230241042A1, “USE OF PENEHYCLIDINE IN TREATMENT OR PREVENTION OF VISION-IMPAIRING EYE DISEASES” (GRAND LIFE SCIENCES GROUP (WUHAN) CO., LTD., priority 2020, published 2023), which cites them from elsewhere.

For data set [1], the system named is FDM. Conditions: daily subconjunctival injection.
Data set [2] concerns chick modeled eyes with visual form deprivation myopia (FDM). As to conditions: day 8, 0.01% by mass injected into the vitreous cavity.
Data set [3] deals with FDM. As to conditions: in vivo.
For data set [4], the system named is experimental myopia. As to conditions: topical eye drops or oral administration.

Molecules are shown by their SMILES.

Turning to `C[N+]1(C)CCC(OC(=O)C(c2ccccc2)c2ccccc2)CC1.[I-]` [4-DAMP], the “inhibition of the occurrence of FDM” value in data set [1] is “ineffective”.

With `CN1[C@@H]2CC[C@H]1C[C@@H](OC(=O)C(CO)c1ccccc1)C2` (stereo partly shown) [atropine], in data set [2], the induced myopia is −2.8 D and the ocular axis extension is given as 0.21 mm. In data set [3], the “prevention of FDM and retinal damage” value is recorded as “certain effect in preventing FDM without retinal damage”.

`COc1ccccc1CNCCCCCCNCCCCCCCCNCCCCCCNCc1ccccc1OC` [methoctramine]: the “inhibition of the occurrence of FDM” value in data set [1] is given as “ineffective”.

With `C[C@@H]1OC(=O)[C@H]2C[C@H]3CCCC[C@@H]3[C@@H](/C=C/[C@H]3CCC[C@H](C)N3C)[C@@H]12` [Himbacine], the “prevention of FDM and retinal damage” value in data set [3] is “certain effect in preventing FDM without retinal damage”.

For `CC[N+](C)(CC)CCOC(=O)C(O)(c1ccccc1)C1CCCCC1` (stereo not shown) [Oxypheneonium, Oxyphenonium], the “prevention of FDM and retinal damage” value in data set [3] is recorded as “certain effect in preventing FDM without retinal damage”.

With `CN1CCN(CC(=O)N2c3ccccc3C(=O)Nc3cccnc32)CC1` [pirenzepine], the “inhibition of the occurrence of FDM” value in data set [1] was “could inhibit the occurrence of FDM”. In addition, the “prevention of FDM and retinal damage” value in data set [3] is “certain effect in preventing FDM without retinal damage”.

Turning to `OC(CCN1CCCCC1)(c1ccccc1)C1CCCCC1` (stereo not shown) [trihexyphenidyl], the “prevention of the progression of experimental myopia” value in data set [4] was “not effective in preventing the progression of experimental myopia”.
